What was measured:
ABL = ABL (Homo sapiens, UniProt P00519); test: ABL tyrosine kinase inhibition, off-chip incubation mobility-shift kinase assay (Caliper LABCHIP 3000); conditions: for IC50: ABL, ATP at Km 14 μM, unit inferred; for ABL AVG % Activity at Specific Concentration: average of replicate wells
PKCz = target: T1, PKCz (Homo sapiens, UniProt Q05513); test: Activity against various protein tyrosine kinases: PKCz; assay type: biochemical
T1 sequence (Q05513 1-592): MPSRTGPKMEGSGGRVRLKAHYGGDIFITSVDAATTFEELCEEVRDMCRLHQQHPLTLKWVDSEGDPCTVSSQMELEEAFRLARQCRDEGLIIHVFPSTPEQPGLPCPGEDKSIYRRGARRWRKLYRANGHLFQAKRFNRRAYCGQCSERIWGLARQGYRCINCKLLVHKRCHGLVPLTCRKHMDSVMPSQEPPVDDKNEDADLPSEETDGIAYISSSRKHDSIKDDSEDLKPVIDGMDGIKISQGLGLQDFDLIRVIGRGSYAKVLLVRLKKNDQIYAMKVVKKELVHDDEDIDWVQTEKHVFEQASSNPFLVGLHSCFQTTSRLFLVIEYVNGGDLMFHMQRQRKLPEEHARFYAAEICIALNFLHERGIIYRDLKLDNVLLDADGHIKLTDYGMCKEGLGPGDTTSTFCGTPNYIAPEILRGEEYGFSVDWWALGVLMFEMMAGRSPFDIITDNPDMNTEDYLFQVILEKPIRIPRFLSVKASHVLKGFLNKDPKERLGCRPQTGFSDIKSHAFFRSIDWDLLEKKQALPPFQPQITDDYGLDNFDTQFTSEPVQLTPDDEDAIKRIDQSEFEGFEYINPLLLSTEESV

HCK = HCK (Homo sapiens, UniProt P08631); test: Activity against various protein tyrosine kinases: HCK; assay type: biochemical
AurC = target: T2, AurC (Homo sapiens, UniProt Q9UQB9); test: Activity against various protein tyrosine kinases: AurC; assay type: biochemical
T2 sequence (Q9UQB9 1-309): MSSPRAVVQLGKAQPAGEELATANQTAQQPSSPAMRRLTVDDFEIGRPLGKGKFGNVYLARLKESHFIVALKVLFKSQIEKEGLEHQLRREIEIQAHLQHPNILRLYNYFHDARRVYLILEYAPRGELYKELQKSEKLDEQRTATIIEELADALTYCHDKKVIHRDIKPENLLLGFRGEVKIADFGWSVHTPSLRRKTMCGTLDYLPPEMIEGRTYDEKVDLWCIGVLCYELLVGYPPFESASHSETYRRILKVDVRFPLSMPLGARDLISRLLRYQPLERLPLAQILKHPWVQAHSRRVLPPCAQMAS

IKK-beta = target: T3, IKK-beta (Homo sapiens, UniProt O14920); test: Activity against various protein tyrosine kinases: IKK-beta; assay type: biochemical
T3 sequence (O14920 1-756): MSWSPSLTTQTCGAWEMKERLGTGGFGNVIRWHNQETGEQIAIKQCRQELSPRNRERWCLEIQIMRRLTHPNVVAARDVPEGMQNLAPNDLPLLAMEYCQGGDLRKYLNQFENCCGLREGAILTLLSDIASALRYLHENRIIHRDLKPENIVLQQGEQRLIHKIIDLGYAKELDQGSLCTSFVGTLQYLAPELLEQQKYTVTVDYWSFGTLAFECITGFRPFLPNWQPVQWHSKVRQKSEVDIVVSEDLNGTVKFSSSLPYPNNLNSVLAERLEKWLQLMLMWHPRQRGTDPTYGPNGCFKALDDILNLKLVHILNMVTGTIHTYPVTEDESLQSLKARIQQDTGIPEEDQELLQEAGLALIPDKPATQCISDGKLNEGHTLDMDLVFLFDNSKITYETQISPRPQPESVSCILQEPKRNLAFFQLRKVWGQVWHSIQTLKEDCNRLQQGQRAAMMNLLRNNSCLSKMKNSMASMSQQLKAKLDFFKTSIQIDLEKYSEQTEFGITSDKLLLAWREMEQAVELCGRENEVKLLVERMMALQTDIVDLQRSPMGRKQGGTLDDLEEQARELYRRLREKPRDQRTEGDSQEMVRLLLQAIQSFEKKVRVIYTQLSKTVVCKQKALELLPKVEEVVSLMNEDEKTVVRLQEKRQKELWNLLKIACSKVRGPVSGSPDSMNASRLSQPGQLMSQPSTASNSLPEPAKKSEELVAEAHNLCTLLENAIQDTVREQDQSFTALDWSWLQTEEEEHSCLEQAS

FGFR1 = FGFR1 (Homo sapiens, UniProt P11362); test: Activity against various protein tyrosine kinases: FGFR1; assay type: biochemical
Sequence of FGFR1 (P11362 22-822, species assumed): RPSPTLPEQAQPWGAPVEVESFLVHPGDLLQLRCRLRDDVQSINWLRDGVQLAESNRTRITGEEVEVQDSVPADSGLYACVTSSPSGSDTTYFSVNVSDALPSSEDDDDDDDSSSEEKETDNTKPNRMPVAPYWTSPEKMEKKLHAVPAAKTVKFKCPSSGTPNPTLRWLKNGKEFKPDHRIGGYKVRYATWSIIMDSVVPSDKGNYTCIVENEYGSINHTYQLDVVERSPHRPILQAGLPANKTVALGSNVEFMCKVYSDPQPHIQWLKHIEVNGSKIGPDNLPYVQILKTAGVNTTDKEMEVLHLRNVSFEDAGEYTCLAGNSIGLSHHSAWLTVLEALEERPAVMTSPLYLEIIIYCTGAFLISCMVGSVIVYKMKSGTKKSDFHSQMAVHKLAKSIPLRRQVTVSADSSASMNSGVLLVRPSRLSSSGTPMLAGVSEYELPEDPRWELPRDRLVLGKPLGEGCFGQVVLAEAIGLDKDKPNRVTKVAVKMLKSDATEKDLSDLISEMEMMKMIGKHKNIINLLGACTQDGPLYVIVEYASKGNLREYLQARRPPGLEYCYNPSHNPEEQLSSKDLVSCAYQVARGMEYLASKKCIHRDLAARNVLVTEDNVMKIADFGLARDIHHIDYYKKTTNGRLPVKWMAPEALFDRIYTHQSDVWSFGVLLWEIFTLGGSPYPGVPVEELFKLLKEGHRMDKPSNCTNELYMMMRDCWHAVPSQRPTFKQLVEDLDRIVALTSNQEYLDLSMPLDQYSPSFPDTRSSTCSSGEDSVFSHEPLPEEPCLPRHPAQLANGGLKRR
Description: Using techniques know those of ordinary skill in the art, compounds were tested for activity against various protein tyrosine kinases.

YES = YES (Homo sapiens, UniProt P07947); test: Activity against various protein tyrosine kinases: YES; assay type: biochemical
Erk1 = Erk1 (Homo sapiens, UniProt P27361); test: Activity against various protein tyrosine kinases: Erk1; assay type: biochemical
Sequence of Erk1 (P27361 whole entry, species assumed): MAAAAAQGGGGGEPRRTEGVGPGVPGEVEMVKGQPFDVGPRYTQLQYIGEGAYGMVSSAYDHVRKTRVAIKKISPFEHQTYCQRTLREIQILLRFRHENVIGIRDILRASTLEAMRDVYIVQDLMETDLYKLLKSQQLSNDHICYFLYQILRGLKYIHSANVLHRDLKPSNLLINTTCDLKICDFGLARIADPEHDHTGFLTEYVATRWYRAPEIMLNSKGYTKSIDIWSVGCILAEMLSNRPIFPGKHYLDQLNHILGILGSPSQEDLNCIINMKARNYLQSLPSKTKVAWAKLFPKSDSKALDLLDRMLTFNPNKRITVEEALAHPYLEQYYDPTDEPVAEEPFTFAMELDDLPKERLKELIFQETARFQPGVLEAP

CaMKII (beta) = CaMKII (beta) (Homo sapiens, UniProt Q13554); test: Activity against various protein tyrosine kinases: CaMKII (beta); assay type: biochemical
MAPKAPK2 = MAPKAPK2 (Homo sapiens, UniProt P49137); test: Activity against various protein tyrosine kinases: MAPKAPK2; assay type: biochemical
Sequence of MAPKAPK2 (P49137 whole entry, species assumed): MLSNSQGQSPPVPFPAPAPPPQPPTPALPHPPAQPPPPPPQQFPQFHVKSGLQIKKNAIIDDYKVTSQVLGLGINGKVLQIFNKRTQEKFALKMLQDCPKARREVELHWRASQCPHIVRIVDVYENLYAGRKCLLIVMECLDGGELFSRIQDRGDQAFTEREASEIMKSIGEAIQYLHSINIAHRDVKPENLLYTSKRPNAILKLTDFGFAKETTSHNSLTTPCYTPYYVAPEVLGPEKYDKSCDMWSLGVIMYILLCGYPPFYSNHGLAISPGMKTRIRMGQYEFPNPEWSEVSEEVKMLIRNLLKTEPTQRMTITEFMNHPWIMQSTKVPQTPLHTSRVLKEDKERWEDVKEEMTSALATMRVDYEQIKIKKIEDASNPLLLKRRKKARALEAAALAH

FGFR2(N549H) = FGFR2(N549H) (Homo sapiens, UniProt P21802, N549H); test: Activity against various protein tyrosine kinases: FGFR2(N549H); assay type: biochemical
Sequence of FGFR2(N549H) (P21802 22-821 N549H, species assumed): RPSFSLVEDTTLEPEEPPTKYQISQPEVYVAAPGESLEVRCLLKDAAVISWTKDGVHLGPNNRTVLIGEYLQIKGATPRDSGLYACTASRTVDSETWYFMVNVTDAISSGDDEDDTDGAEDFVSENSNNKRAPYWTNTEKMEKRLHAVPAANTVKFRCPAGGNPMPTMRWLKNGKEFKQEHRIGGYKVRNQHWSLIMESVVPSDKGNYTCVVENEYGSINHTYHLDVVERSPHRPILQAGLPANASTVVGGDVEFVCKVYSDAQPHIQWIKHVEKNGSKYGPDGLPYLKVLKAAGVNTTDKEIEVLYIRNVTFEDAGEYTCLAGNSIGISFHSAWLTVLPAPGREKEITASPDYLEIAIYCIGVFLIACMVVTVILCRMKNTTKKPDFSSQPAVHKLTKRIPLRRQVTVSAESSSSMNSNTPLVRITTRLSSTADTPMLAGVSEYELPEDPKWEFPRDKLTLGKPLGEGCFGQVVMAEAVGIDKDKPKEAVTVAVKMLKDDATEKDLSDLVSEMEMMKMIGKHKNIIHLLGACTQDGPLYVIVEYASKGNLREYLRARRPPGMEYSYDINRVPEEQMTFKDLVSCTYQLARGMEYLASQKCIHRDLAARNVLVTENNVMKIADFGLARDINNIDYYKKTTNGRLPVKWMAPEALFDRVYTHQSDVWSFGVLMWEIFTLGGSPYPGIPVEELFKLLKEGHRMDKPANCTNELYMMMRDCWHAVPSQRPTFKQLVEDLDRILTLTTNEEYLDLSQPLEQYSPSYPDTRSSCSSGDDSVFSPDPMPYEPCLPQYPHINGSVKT

CK1d = CK1d (Homo sapiens, UniProt P48730); test: Activity against various protein tyrosine kinases: CK1d; assay type: biochemical
Sequence of CK1d (P48730 whole entry): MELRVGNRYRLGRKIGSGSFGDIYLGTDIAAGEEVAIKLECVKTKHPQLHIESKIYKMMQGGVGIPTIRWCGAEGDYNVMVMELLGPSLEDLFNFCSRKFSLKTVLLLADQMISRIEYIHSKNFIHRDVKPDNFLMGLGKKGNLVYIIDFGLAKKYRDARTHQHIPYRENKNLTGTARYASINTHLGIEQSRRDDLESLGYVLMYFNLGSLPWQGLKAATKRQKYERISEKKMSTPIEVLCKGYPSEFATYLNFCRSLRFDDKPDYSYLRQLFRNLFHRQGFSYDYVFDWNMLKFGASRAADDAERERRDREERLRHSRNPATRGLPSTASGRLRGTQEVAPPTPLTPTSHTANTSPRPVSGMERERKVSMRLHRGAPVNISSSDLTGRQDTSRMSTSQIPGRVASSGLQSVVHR

CaMKII (gamma) = CaMKII (gamma) (Homo sapiens, UniProt Q13555); test: Activity against various protein tyrosine kinases: CaMKII (gamma); assay type: biochemical
MSK1 = MSK1 (Homo sapiens, UniProt O75582); test: Activity against various protein tyrosine kinases: MSK1; assay type: biochemical
Sequence of MSK1 (O75582 whole entry, species assumed): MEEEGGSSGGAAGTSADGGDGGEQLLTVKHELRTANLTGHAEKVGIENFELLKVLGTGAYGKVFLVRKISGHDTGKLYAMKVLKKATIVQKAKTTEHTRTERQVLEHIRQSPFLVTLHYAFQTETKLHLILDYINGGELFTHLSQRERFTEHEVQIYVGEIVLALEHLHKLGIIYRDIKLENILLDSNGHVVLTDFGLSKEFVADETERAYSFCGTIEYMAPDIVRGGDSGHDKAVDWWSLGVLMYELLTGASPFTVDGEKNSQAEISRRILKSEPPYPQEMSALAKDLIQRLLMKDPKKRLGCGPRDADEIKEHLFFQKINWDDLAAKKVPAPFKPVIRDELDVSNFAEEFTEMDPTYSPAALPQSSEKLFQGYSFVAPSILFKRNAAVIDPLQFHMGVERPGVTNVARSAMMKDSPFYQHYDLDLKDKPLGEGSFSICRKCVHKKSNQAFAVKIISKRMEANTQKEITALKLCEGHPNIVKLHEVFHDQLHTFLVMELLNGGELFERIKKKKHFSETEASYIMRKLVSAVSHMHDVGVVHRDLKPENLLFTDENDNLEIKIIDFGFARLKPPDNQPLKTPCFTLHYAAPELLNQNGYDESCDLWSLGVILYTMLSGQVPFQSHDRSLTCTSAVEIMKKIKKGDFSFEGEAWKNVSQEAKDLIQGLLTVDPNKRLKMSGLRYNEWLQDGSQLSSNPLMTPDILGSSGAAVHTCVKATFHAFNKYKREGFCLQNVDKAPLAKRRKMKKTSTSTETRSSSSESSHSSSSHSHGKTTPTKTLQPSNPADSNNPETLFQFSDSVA

FGFR2 = FGFR2 (Homo sapiens, UniProt P21802); test: Activity against various protein tyrosine kinases: FGFR2; assay type: biochemical
Sequence of FGFR2 (P21802 22-821, species assumed): as the sequence (P21802 22-821 N549H, species assumed) above, with H528N counted along it

[1] = at 1.0E−09 (concentration unit not given)
[2] = at 1.0E−10 (concentration unit not given)
[3] = at 1.0E−11 (concentration unit not given)
[4] = at 3.0E−09 (concentration unit not given)
[5] = at 3.0E−10 (concentration unit not given)
[6] = at 3.0E−11 (concentration unit not given)

Sequence of ABL (P00519 whole entry): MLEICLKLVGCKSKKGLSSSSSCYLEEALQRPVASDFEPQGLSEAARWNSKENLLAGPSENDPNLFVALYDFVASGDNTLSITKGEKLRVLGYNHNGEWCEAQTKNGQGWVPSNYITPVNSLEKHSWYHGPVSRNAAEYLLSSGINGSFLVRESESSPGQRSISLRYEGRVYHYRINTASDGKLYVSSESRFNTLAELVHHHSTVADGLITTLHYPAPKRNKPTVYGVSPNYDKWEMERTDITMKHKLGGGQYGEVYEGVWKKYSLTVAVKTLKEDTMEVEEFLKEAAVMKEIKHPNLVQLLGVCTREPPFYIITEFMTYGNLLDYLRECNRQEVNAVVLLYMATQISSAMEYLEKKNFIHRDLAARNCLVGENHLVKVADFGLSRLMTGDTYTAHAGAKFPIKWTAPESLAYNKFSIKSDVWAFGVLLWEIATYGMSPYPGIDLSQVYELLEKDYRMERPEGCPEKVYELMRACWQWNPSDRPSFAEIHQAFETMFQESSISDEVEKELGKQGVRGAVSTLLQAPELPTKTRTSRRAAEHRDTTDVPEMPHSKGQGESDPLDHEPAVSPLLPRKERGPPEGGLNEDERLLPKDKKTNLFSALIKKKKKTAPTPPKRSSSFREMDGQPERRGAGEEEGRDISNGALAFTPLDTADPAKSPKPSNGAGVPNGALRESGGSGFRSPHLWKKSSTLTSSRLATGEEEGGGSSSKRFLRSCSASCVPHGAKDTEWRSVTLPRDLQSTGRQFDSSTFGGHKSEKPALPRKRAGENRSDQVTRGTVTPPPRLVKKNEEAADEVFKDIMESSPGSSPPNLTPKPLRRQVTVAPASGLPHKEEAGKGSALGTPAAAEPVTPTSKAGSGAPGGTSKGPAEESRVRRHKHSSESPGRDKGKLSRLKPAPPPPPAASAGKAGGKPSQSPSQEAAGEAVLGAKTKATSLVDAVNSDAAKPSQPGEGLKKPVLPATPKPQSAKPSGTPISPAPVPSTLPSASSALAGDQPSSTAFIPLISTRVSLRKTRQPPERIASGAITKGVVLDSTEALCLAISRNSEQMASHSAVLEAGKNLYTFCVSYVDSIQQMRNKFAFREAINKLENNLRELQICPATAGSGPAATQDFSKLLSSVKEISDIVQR

Row | SMILES | IC50 (ABL) | ABL AVG % Activity at Specific Concentration (ABL; [1]) | ABL AVG % Activity at Specific Concentration (ABL; [2]) | ABL AVG % Activity at Specific Concentration (ABL; [3]) | ABL AVG % Activity at Specific Concentration (ABL; [4]) | ABL AVG % Activity at Specific Concentration (ABL; [5]) | ABL AVG % Activity at Specific Concentration (ABL; [6]) | % Inhibition at 10 nM (PKCz) | % Inhibition at 1 μM (PKCz) | % Inhibition at 10 nM (HCK) | % Inhibition at 1 μM (HCK) | % Inhibition at 10 nM (AurC) | % Inhibition at 1 μM (AurC) | % Inhibition at 10 nM (IKK-beta) | % Inhibition at 1 μM (IKK-beta) | % Inhibition at 10 nM (FGFR1) | % Inhibition at 1 μM (FGFR1) | % Inhibition at 10 nM (YES) | % Inhibition at 1 μM (YES) | % Inhibition at 10 nM (Erk1) | also measured
1 | COCCOCCOCCOCCOCCOCCOCCNC(=O)OCCN1CCN(c2cc(Nc3ncc(C(=O)Nc4c(C)cccc4Cl)s3)nc(C)n2)CC1 [mPEG7-NHCOO-Dasatinib] | 0.32 nM | 4% | 80% | 98% | −1% | 48% | 91% | 5% | −9% | 98% | 99% | 0% | 2% | 2% | 2% | 2% | 3% | 100% | 102% | 3% | % Inhibition at 1 μM (Erk1): 4%; % Inhibition at 10 nM (CaMKII (beta)): 1%; % Inhibition at 1 μM (CaMKII (beta)): 2%; % Inhibition at 10 nM (MAPKAPK2): 3%; % Inhibition at 1 μM (MAPKAPK2): 7%; % Inhibition at 10 nM (FGFR2(N549H)): 5%; % Inhibition at 1 μM (FGFR2(N549H)): 63%; % Inhibition at 10 nM (CK1d): 0%; % Inhibition at 1 μM (CK1d): 9%; % Inhibition at 10 nM (CaMKII (gamma)): 6%; % Inhibition at 1 μM (CaMKII (gamma)): 3%; % Inhibition at 10 nM (MSK1): 3%; % Inhibition at 1 μM (MSK1): 5%; % Inhibition at 10 nM (FGFR2): 5%; % Inhibition at 1 μM (FGFR2): 35%
2 | COCCOCCOCCNC(=O)OCCN1CCN(c2cc(Nc3ncc(C(=O)Nc4c(C)cccc4Cl)s3)nc(C)n2)CC1 [mPEG3-NHCOO-Dasatinib] | 0.3 nM | 4% | 81% | 99% | 0% | 47% | 95% | −12% | −13% | 98% | 98% | −1% | 0% | 0% | 1% | 11% | −3% | 100% | 100% | 3% | % Inhibition at 1 μM (Erk1): 2%; % Inhibition at 10 nM (CaMKII (beta)): 1%; % Inhibition at 1 μM (CaMKII (beta)): 2%; % Inhibition at 10 nM (MAPKAPK2): 1%; % Inhibition at 1 μM (MAPKAPK2): −1%; % Inhibition at 10 nM (FGFR2(N549H)): 7%; % Inhibition at 1 μM (FGFR2(N549H)): 75%; % Inhibition at 10 nM (CK1d): 1%; % Inhibition at 1 μM (CK1d): 3%; % Inhibition at 10 nM (CaMKII (gamma)): 2%; % Inhibition at 1 μM (CaMKII (gamma)): 2%; % Inhibition at 10 nM (MSK1): 2%; % Inhibition at 1 μM (MSK1): 1%; % Inhibition at 10 nM (FGFR2): −2%; % Inhibition at 1 μM (FGFR2): 38%

Source: US9084828B2, “Oligomer-protein tyrosine kinase inhibitor conjugates” (Nektar Therapeutics, priority 2009, dated 2015)
